Assay results from patent US20220395438A1, “TOOTH WHITENING COMPOSITION” (Universitat Autonoma de Barcelona, priority 2019, published 2022).

Test: Tooth whitening treatments at 20 minutes according to 2^2 factorial design (colorimetric ΔE)
Design: species or system bovine
Conditions: 8 specimens per treatment

O=S([O-])S(=O)(=O)[O-].[Na+].[Na+] [Comparative 2, sodium metabisulfite]
increase in the whiteness of the tooth, ΔE ± standard deviation (3 minutes of treatment): 7.3 ± 1.5
increase in the whiteness of the tooth, ΔE ± standard deviation (3 minutes of treatment, listed as MBS): 7.3
increase in the whiteness of the tooth, ΔE ± standard deviation (6 minutes of treatment): 12.9 ± 0.8
increase in the whiteness of the tooth, ΔE ± standard deviation (9 minutes of treatment): 14.7 ± 1.8
increase in the whiteness of the tooth, ΔE ± standard deviation (14 minutes of treatment): 14.8 ± 1.7
increase in the whiteness of the tooth, ΔE ± standard deviation (20 minutes of treatment): 16.2 ± 1.7
